According to patent US7294637B2 (Sepracor, Inc., priority 2000, dated 2007):
Like-named read-outs stand apart in the source and are kept apart here.

Experiments:
[1] = biological target: T1, norepinephrine transporter (Homo sapiens, UniProt P23975); assay: NE uptake: displacement of norephinephrine ligands in vitro (methods of Galli et al.); assay type: binding
serotonin transporter [2] = biological target: T2, serotonin transporter (Homo sapiens, UniProt P31645); assay: 5-HT uptake: displacement of serotonin ligands in vitro (methods of Gu et al.); assay type: binding
[3] = biological target: T1, norepinephrine transporter; assay: Functional activity, norephinephrine uptake inhibition in MDCK cell lines; assay type: cell-based
DAT = DAT (Homo sapiens, UniProt Q01959); assay: cell-based; design: expressed in transfected cells; conditions: hDAT cell line; read-out: DA Uptake, Functional Assays (antagonism, EC50)
dopamine transporter = dopamine transporter (Homo sapiens, UniProt Q01959); assay: DA uptake: displacement of dopamine ligands in vitro (methods of Gu et al.); conditions: DA Uptake, Uptake Profile (IC50, nM), displacement of dopamine ligands in vitro
serotonin transporter [4] = biological target: T2, serotonin transporter; assay: Functional activity, serotonin uptake inhibition in human HEK-293 cell lines; assay type: cell-based; design: expressed in transfected cells; host or cells: HEK-293; conditions: human HEK-293 cell lines; read-out: 5-HT Uptake, Functional Assays (antagonism, EC50)
[5] = NE Uptake, Uptake Profile (IC50, nM)
[6] = displacement of serotonin ligands in vitro, read-out: 5-HT Uptake, Uptake Profile (IC50)
[7] = read-out: NE Uptake, Uptake Profile (IC50)
[8] = 5-HT Uptake, Uptake Profile (IC50, nM)

T1 sequence (P23975 whole entry): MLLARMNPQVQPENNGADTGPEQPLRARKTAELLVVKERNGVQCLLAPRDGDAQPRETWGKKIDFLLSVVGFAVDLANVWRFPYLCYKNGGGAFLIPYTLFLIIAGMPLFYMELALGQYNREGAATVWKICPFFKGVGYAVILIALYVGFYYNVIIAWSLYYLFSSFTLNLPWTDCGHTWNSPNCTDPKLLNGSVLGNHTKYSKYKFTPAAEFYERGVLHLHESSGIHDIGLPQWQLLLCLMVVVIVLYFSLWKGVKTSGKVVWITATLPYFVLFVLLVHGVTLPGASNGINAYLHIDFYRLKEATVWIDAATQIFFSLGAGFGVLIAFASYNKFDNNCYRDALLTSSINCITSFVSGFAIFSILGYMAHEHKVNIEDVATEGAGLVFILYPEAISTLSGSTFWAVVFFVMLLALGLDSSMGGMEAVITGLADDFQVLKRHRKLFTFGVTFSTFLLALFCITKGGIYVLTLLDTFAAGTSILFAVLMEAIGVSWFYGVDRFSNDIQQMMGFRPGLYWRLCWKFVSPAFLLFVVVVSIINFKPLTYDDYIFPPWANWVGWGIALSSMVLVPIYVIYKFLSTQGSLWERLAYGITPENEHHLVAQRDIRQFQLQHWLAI
Sequence of DAT (Q01959 whole entry): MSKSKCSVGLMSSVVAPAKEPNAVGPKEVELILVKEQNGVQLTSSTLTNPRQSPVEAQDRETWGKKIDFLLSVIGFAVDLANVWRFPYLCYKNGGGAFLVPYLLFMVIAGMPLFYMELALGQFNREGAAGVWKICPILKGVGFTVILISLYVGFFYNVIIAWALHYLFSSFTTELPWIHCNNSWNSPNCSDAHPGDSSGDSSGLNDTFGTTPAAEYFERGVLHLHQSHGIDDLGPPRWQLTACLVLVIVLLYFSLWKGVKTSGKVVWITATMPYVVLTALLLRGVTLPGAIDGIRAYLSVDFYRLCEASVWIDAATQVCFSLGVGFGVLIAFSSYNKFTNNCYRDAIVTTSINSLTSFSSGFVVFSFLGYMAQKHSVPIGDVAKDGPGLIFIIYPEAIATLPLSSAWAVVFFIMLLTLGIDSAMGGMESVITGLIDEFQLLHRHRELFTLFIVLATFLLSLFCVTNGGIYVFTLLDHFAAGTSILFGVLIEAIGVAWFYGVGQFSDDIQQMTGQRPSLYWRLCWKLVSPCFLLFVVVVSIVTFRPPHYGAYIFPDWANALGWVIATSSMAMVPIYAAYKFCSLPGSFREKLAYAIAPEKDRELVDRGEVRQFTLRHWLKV
Sequence of dopamine transporter (Q01959 whole entry): as above
T2 sequence (P31645 whole entry): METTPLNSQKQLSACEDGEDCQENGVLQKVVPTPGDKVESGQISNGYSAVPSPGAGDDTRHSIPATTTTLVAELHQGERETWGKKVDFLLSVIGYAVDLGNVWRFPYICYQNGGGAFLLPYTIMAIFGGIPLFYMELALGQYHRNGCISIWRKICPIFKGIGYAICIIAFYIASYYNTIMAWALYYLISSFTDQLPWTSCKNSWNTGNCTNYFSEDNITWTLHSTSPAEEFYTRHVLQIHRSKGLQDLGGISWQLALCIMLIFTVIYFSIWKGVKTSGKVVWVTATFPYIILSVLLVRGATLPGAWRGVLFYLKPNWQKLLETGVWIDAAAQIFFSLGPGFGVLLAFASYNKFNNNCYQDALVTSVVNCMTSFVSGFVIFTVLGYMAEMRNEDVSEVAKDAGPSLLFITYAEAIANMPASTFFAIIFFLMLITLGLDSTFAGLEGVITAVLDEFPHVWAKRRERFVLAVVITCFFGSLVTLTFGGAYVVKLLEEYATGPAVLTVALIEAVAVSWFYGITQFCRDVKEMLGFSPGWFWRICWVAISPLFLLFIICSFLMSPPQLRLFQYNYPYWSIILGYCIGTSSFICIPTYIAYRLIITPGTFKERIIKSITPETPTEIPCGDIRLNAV

| Compound | IC50 [1, 5] [nM] | IC50 (serotonin transporter [2]; [6]) [nM] | EC50 [3] [nM] | EC50 (DAT) [nM] | IC50 (dopamine transporter) [nM] | IC50 [1, 7] [nM] | EC50 (serotonin transporter [4]) [nM] | IC50 (serotonin transporter [2]; [8]) [nM] | IC50 (serotonin transporter [2]; read-out: 5-HT Uptake, Uptake Profile (IC50)) [nM] |
| --- | --- | --- | --- | --- | --- | --- | --- | --- | --- |
| OC[C@H]1[C@@H](COc2ccc(C(F)(F)F)cc2)CCCN1CC1(c2ccc(Cl)cc2)CCC1 (racemic) [compound 82, cis-[1-[1-(4-chloro-phenyl)-cyclobutylmethyl]-3-(4-trifluoromethyl-phenoxymethyl)-piperidin-2-yl]-methanol] | < 1000 | < 1000 | < 1000 | < 100 | < 100 | – | – | – | – |
| OC(CN1CCCC(COc2ccc(C(F)(F)F)cc2)C1)C1(c2ccccc2OC(F)(F)F)CCC1 (single isomer, unassigned) [compound 224, 1-[1-(2-Trifluoromethoxy-phenyl)-cyclobutyl]-2-[3-(4-trifluoromethyl-phenoxymethyl)-piperidin-1-yl]-ethanol] | – | > 1000 | > 1000 | > 1000 | > 1000 | > 1000 | < 1000 | – | – |
| OCC1CCCN(CC2(c3ccc(Cl)cc3)CCC2)C1 (stereo not shown) [compound 2] | > 1000 | – | – | < 100 | < 1000 | – | – | > 1000 | – |
| FC(F)(F)c1ccc(OCC2CCCN(CC3(c4ccc(Cl)cc4)CCC3)C2)cc1 (stereo not shown) [compound 7] | > 1000 | – | – | < 100 | < 100 | – | – | > 1000 | – |
| FC(F)(F)c1ccc(OCC2CCCN(CC3(c4ccc(Cl)cc4)CCOCC3)C2)cc1 (stereo not shown) [compound 159, 1-[4-(4-Chloro-phenyl)-tetrahydro-piran-4-ylmethyl]-3-(4-trifluoromethyl-phenoxymethyl)piperidine] | < 1000 | < 1000 | – | – | < 100 | – | – | – | – |
| CO[C@@H](CN1CCC[C@@H](COc2ccc(C(F)(F)F)cc2)C1)C1(c2ccc(Cl)cc2)CCC1 [compound 160] | > 1000 | < 1000 | – | – | < 100 | – | – | – | – |
| CO[C@H](CN1CCC[C@@H](COc2ccc(C(F)(F)F)cc2)C1)C1(c2ccc(Cl)cc2)CCC1 [compound 161] | < 1000 | < 1000 | – | – | < 10 | – | – | – | – |
| CO[C@@H](CN1CCC[C@H](COc2ccc(C(F)(F)F)cc2)C1)C1(c2ccc(Cl)cc2)CCC1 [compound 162] | > 1000 | < 1000 | – | – | < 100 | – | – | – | – |
| CO[C@H](CN1CCC[C@H](COc2ccc(C(F)(F)F)cc2)C1)C1(c2ccc(Cl)cc2)CCC1 [compound 163] | > 1000 | < 1000 | – | – | < 10 | – | – | – | – |
| COc1ccccc1C1(C(O)CN2CCCC(COc3ccc(C(F)(F)F)cc3)C2)CCC1 (stereo not shown) [compound 164] | < 1000 | < 100 | – | – | < 10 | – | – | – | – |
| OC(CN1CCCC(COc2ccc(C(F)(F)F)cc2)C1)C1(c2ccc3c(c2)OCO3)CCC1 (stereo not shown) [compound 165] | < 100 | < 100 | – | – | < 10 | – | – | – | – |
| OC(CN1CCCC(COc2ccc(C(F)(F)F)cc2)C1)C1(c2ccc(C(F)(F)F)cc2)CCC1 (stereo not shown) [compound 166] | < 100 | > 1000 | – | – | < 10 | – | – | – | – |
| OC1(COc2ccc(C(F)(F)F)cc2)CCCN(CC2(c3ccc(Cl)cc3)CCC2)C1 (stereo not shown) [compound 167, [1-(4-Chloro-phenyl)-cyclobutylmethyl]-3-(4-trifluoromethyl-phenoxymethyl)-piperidin-3-ol] | – | – | – | – | > 1000 | > 1000 | – | – | > 1000 |
| FC(F)(F)c1ccc(OCC2CCCCN(CC3(c4ccc(Cl)cc4)CCC3)C2)cc1 (stereo not shown) [compound 168, 1-[1-(4-Chloro-phenyl)-cyclobutylmethyl]-3-(4-trifluoromethyl-phenoxymethyl)-azepane] | < 1000 | > 1000 | – | – | < 100 | – | – | – | – |
| COc1ccc(C2(CN3CCC[C@@H](COc4ccc(OC(F)(F)F)cc4)C3)CCC2)cc1 [compound 170, (R)-1-[1-(4-Methoxy-phenyl)-cyclobutylmethyl]-3-(4-trifluoromethoxy-phenoxymethyl)-piperidine] | < 1000 | < 1000 | – | – | < 10 | – | – | – | – |
| COc1ccc(C2(CN3CCC[C@H](COc4ccc(OC(F)(F)F)cc4)C3)CCC2)cc1 [compound 171, (S)-1-[1-(4-Methoxy-phenyl)-cyclobutylmethyl]-3-(4-trifluoromethoxy-phenoxymethyl)-piperidine] | < 1000 | < 1000 | – | – | < 10 | – | – | – | – |

| Compound | IC50 [1, 5] [nM] | IC50 (serotonin transporter [2]; [6]) [nM] | EC50 [3] [nM] | EC50 (DAT) [nM] | IC50 (dopamine transporter) [nM] | IC50 [1, 7] [nM] | EC50 (serotonin transporter [4]) [nM] | IC50 (serotonin transporter [2]; [8]) [nM] | IC50 (serotonin transporter [2]; read-out: 5-HT Uptake, Uptake Profile (IC50)) [nM] |
| --- | --- | --- | --- | --- | --- | --- | --- | --- | --- |
| FC(F)(F)c1ccc(OCC2CCCN(CCc3c[nH]c4ccccc34)C2)cc1 (stereo not shown) [compound 180, 3-{2-[3-(4-Trifluoromethyl-phenoxymethyl)-piperidin-1-yl]-ethyl}-1H-indole] | < 1000 | < 1000 | – | – | < 1000 | – | – | – | – |
| FC(F)(F)c1ccc(OCC2CCCN(CCc3ccc(-c4ccccc4)cc3)C2)cc1 (stereo not shown) [compound 181, 1-(2-Biphenyl-4-yl-ethyl)-3-(4-trifluoromethyl-phenoxymethyl)-piperidine] | < 1000 | – | – | – | > 1000 | – | – | < 100 | – |
| FC(F)(F)c1cc(COC2CCCN(CC3(c4ccc(Cl)cc4)CCC3)C2)cc(C(F)(F)F)c1 (stereo not shown) [compound 189, 3-(3,5-Bis-trifluoromethyl-benzyloxy)-1-[1-(4-chloro-phenyl)-cyclobutylmethyl]-piperidine] | – | > 1000 | – | – | > 1000 | > 1000 | – | – | – |
| OC(CN1CCCC(COc2ccc(C(F)(F)F)cc2)C1)(c1ccccc1)C1CCCCC1 (stereo not shown) [compound 191, 1-Cyclohexyl-1-phenyl-2-[3-(4-trifluoromethyl-phenoxymethyl)-piperidin-1-yl]-ethanol] | – | > 1000 | – | – | > 1000 | > 1000 | – | – | – |
| COC(CN1CCC[C@@H](CCc2ccccc2)C1)c1ccc(Cl)cc1 (stereo partly drawn) [compound 196, 1-[2-(4-Chloro-phenyl)-2-methoxy-ethyl]-3-(R)-phenethyl-piperidine] | < 100 | < 10 | – | – | < 100 | – | – | – | – |
| CC(O)(CN1CCC[C@@H](CCc2ccccc2)C1)c1ccc(Cl)cc1 (stereo partly drawn) [compound 197, 2-(4-Chloro-phenyl)-1-(3 (R)-phenethyl-piperidin-1-yl)-propan-2-ol] | < 1000 | < 10 | – | – | < 1000 | – | – | – | – |
| OC(CN1CCCC(CCc2ccc(OC(F)(F)F)cc2)C1)c1ccc(Cl)cc1 (stereo not shown) [compound 201] | < 1000 | < 1000 | – | – | < 10 | – | – | – | – |
| OC(CN1CCCC(COc2ccc(C(F)(F)F)cc2)C1)C1(c2ccc(OC(F)(F)F)cc2)CCC1 (stereo not shown) [compound 206, 1-[1-(4-Trifluoromethoxy-phenyl)-cyclobutyl]-2-[3-(4-trifluoromethyl-phenoxymethyl)-piperidin-1-yl]-ethanol] | < 1000 | < 1000 | – | – | < 100 | – | – | – | – |
| OC(CN1CCCC(COc2ccc(OC(F)(F)F)cc2)C1)C1(c2ccc(Cl)cc2)CCC1 (stereo not shown) [compound 210, 1-[1-(4-Chloro-phenyl)-cyclobutyl]-2-[3-(4-trifluoromethoxy-phenoxymethyl)-piperidin-1-yl]-ethanol] | < 100 | < 1000 | – | – | < 10 | – | – | – | – |
| OC(CN1CCCC(COc2ccc(OC(F)(F)F)cc2)C1)C1(c2ccc(OC(F)(F)F)cc2)CCC1 (stereo not shown) [compound 212, 2-[3-(4-Trifluoromethoxy-phenoxymethyl)-piperidin-1-yl]-1-[1-(4-trifluoromethoxy-phenyl)-cyclobutyl]-ethanol] | < 1000 | < 1000 | – | – | < 100 | – | – | – | – |
| CNC(CN1CCC[C@@H](CCc2ccccc2)C1)c1ccc(Cl)cc1 (stereo partly drawn) [compound 213, [1-(4-Chloro-phenyl)-2-(3(R)-phenethyl-piperidin-1-yl)-ethyl]-methyl-amine] | < 1000 | < 100 | – | – | < 1000 | – | – | – | – |
| CC(CN1CCCC(COc2ccc(C(F)(F)F)cc2)C1)C(O)c1ccc(Cl)cc1 (stereo not shown) [compound 218, 1-(4-Chloro-phenyl)-2-methyl-3-[3-(4-trifluoromethyl-phenoxymethyl)-piperidin-1-yl]-propan-1-ol] | > 1000 | < 1000 | – | – | < 10 | – | – | – | – |
| COc1ccc2[nH]cc(CCN3CCCC(COc4ccc(C(F)(F)F)cc4)C3)c2c1 (stereo not shown) [compound 220, 5-Methoxy-3-{2-[3-(4-trifluoromethyl-phenoxymethyl)-piperidin-1-yl]-ethyl}-1H-indole] | < 1000 | < 100 | – | – | < 1000 | – | – | – | – |
| OC(CN1CCCC(COc2ccc(C(F)(F)F)cc2)C1)c1c[nH]c2ccc(Cl)cc12 (stereo not shown) [compound 222, 1-(5-Chloro-1H-indol-3-yl)-2-[3-(4-trifluoromethyl-phenoxymethyl)-piperidin-1-yl]-ethanol] | > 1000 | < 1000 | – | – | > 1000 | – | – | – | – |
| NCC1CCCN(CC2(c3ccc(Cl)cc3)CCC2)C1 (stereo not shown) [compound 230, C-{1-[1-(4-Chloro-phenyl)-cyclobutylmethyl]-piperidin-3-yl}-methylamine] | – | > 1000 | – | – | < 100 | > 1000 | – | – | – |
| COc1ccccc1C1(C(O)CN2CCCC(COc3ccc4c(c3)OCO4)C2)CCC1 (stereo not shown) [compound 232, 2-[3-(Benzo[1,3]dioxol-5-yloxymethyl)-piperidin-1-yl]-1-[1-(2-methoxy-phenyl)-cyclobutyl]-ethanol] | < 1000 | < 1000 | – | – | < 1000 | – | – | – | – |
